Each structure is given as a SMILES string.

This data set is described as follows: logP determination by HPLC on reversed-phase column (EEC Directive 79/831 Annex V.A8). The conditions noted are these: acidic range (pH 2.3), marked a); 0.1% aqueous phosphoric acid/acetonitrile gradient; reversed-phase C 18; 43° C. It counts as physicochemical. The method, then:
The logP values given in the table were determined in accordance with EEC Directive 79/831 Annex V.A8 by HPLC (High Performance Liquid Chromatography) on a reversed-phase column (C 18). Temperature: 43° C. (a) Mobile phases for the determination in the acidic range (pH 2.3): 0.1% aqueous phosphoric acid, acetonitrile; linear gradient from 10% acetonitrile to 90% acetonitrile—the corresponding measurement results in table 1 are marked a). (b) Mobile phases for the determination in the neutral range (pH 7.5): 0.01-molar aqueous phosphate buffer solution, acetonitrile; linear gradient from 10% acetonitrile to 90% acetonitrile—the corresponding measurement results in table 1 are marked b). Calibration was carried out using unbranched alkan-2-ones (having 3 to 16 carbon atoms) with known logP values (determination of the logP values by the retention times using linear interpolation between two successive alkanones).
On to `CC(C)(C)C1=NN(C(=O)NC2CCCCC2)C(O)(C(F)(F)F)C1` (stereo not shown) [Example 66], for which the logP entry is given as “logP = 3.68^a)”.

With `CC1=NN(C(=S)Nc2ccccc2F)C(O)(C(F)(F)F)C1` (stereo not shown) [Example 120], the logP result is on record as “logP = 3.05^a)”.

Regarding `CC(C)(C)C1=NN(C(=O)Nc2ccccc2)C(O)(C(F)(F)F)C1` (stereo not shown) [Example 65], the logP result is recorded as “logP = 4.58^a)”.

As to `CCC1=NN(C(=S)Nc2ccc(Cl)cc2Cl)C(O)(C(F)(F)F)C1` (stereo not shown) [Example 57], the logP result is reported as “logP = 4.53^a)”.

Take `CCC1=NN(C(=O)Nc2ccc(Cl)cc2)C(O)(C(F)(F)F)C1` (racemic) [Example 49]: the logP entry is “logP = 3.43^a)”.

Regarding `CC1=NN(C(=S)NCc2ccccc2F)C(O)(C(F)(F)F)C1` (stereo not shown) [Example 124], the logP result is “logP = 3.53^a)”.

On to `CCC1=NN(C(=S)Nc2ccccc2OC)C(O)(C(F)(F)F)C1` (stereo not shown) [Example 91], for which the logP entry is recorded as “logP = 3.85^a)”.

With `CC1=NN(C(=S)Nc2cccc(Cl)c2Cl)C(O)(C(F)(F)F)C1` (stereo not shown) [Example 103], the logP entry is “logP = 3.75^a)”.

Turning to `CC(C)(C)C1=NN(C(=S)Nc2ccc(Cl)cc2)C(O)(C(Cl)(Cl)Cl)C1` (stereo not shown) [Example 129], the logP entry is “logP = 4.03^a)”.

For `CC(C)(C)C1=NN(C(=O)Nc2ccc(Cl)cc2Cl)C(O)(C(F)(F)F)C1` (stereo not shown) [Example 68], the logP entry is recorded as “logP = 5.18^a)”.

Take `CCC1=NN(C(=O)NCc2ccc(Cl)c(Cl)c2)C(O)(C(F)(F)F)C1` (stereo not shown) [Example 97]: the logP entry is “logP = 4.34^a)”.

For the compound `CCC1=NN(C(=O)Nc2ccccc2)C(O)(C(F)(F)F)C1` (racemic) [Example 39], the logP entry is on record as “logP = 2.91^a)”.

As to `CC(C)(C)C1=NN(C(=S)NCc2ccc(Cl)cc2)C(O)(C(F)(F)C(F)(F)F)C1` (stereo not shown) [Example 132], the logP entry is given as “logP = 5.32^a)”.

Take `CC(C)C1=NN(C(=O)Nc2ccccc2)C(O)(C(F)(F)F)C1` (racemic) [Example 28]: the logP result was “logP = 3.32^a)”.

Consider `CC1=NN(C(=S)NCc2ccc(Cl)c(Cl)c2)C(O)(C(F)(F)F)C1` (stereo not shown) [Example 113], for which the logP entry is “logP = 4.26^a)”.

On to `CC1=NN(C(=S)Nc2ccc(C(C)(C)C)cc2)C(O)(C(F)(F)F)C1` (stereo not shown) [Example 121], for which the logP result is “logP = 4.45^a)”.

Take `O=C(Nc1ccc(OC(F)(F)F)cc1)N1N=C(C2(Cl)CC2)CC1(O)C(F)(F)F` (stereo not shown) [Example 52]: the logP entry is given as “logP = 4.07^a)”.

Take `CCC1=NN(C(=S)Nc2c(F)cc(F)cc2F)C(O)(C(F)(F)F)C1` (stereo not shown) [Example 89]: the logP result was “logP = 3.52^a)”.

`CC(C)C1=NN(C(=S)Nc2cccnc2)C(O)(C(F)(F)F)C1` (racemic) [Example 35]: the logP result is listed as “logP = 1.96^a)”.

As to `CC(C)CC1=NN(C(=O)Nc2ccc(Cl)c(Cl)c2)C(O)(C(F)(F)F)C1` (racemic) [Example 4], the logP result was “logP = 4.63^a)”.

Consider `CC(C)(C)C1=NN(C(=O)Nc2ccccc2Cl)C(O)(C(F)(F)F)C1` (stereo not shown) [Example 69], for which the logP result is on record as “logP = 4.48^a)”.

As for `CCC1=NN(C(=S)Nc2cccc(Cl)c2Cl)C(O)(C(F)(F)F)C1` (stereo not shown) [Example 87], the logP result was “logP = 4.29^a)”.

Take `OC1(C(F)(F)F)CC(c2ccco2)=NN1C(=S)Nc1ccc(Cl)cc1` (stereo not shown) [Example 81]: the logP result is “logP = 3.99^a)”.

Turning to `CC1=NN(C(=S)Nc2cc(Cl)cc(Cl)c2)C(O)(C(F)(F)F)C1` (stereo not shown) [Example 109], the logP result was “logP = 4.18^a)”.

For `CCC1=NN(C(=S)Nc2ccccc2)C(O)(C(F)(F)F)C1` (racemic) [Example 38], the logP entry is on record as “logP = 3.57^a)”.

Take `CC(C)C1=NN(C(=O)Nc2ccccc2Cl)C(O)(C(F)(F)F)C1` (racemic) [Example 37]: the logP result was “logP = 4.10^a)”.

Consider `CC1=NN(C(=S)Nc2ccc(F)cc2)C(O)(C(F)(F)F)C1` (stereo not shown) [Example 110], for which the logP entry was “logP = 2.06^a)”.

Turning to `CCC1=NN(C(=S)Nc2ccc(C(F)(F)F)cc2)C(O)(C(F)(F)F)C1` (stereo not shown) [Example 54], the logP result is given as “logP = 4.27^a)”.

Turning to `O=C(Nc1ccc(Cl)cc1)N1N=C(c2ccccc2)CC1(O)C(F)(F)F` (stereo not shown) [Example 82], the logP result is recorded as “logP = 3.97^a)”.

As for `CC(C)C1=NN(C(=S)Nc2ccc(OC(F)(F)F)cc2)C(O)(C(F)(F)F)C1` (racemic) [Example 36], the logP result was “logP = 4.61^a)”.

For `CC1=NN(C(=S)Nc2ccc(C)cc2)C(O)(C(F)(F)F)C1` (stereo not shown) [Example 119], the logP result is recorded as “logP = 3.49^a)”.

`CC1=NN(C(=S)Nc2c(F)cc(F)cc2F)C(O)(C(F)(F)F)C1` (stereo not shown) [Example 105]: the logP result is recorded as “logP = 3.12^a)”.

In the case of `CC(C)C1=NN(C(=O)Nc2ccc(Cl)cc2)C(O)(C(F)(F)F)C1` (racemic) [Example 18], the logP result is given as “logP = 3.79^a)”.

Regarding `CC(C)(C)C1=NN(C(=O)Nc2ccc(Cl)cc2)C(O)(C(F)(F)C(F)(F)F)C1` (stereo not shown) [Example 134], the logP result is listed as “logP = 4.77^a)”.

As to `CC1=NN(C(=S)Nc2cc(C(F)(F)F)ccc2Cl)C(O)(C(F)(F)F)C1` (stereo not shown) [Example 107], the logP result is given as “logP = 3.94^a)”.

Consider `CC(C)C1=NN(C(=S)NCc2ccco2)C(O)(C(F)(F)F)C1` (racemic) [Example 41], for which the logP entry is recorded as “logP = 3.78^a)”.

Take `Cc1ccc(NC(=S)N2N=C(C(C)(C)C)CC2(O)C(F)(F)F)cc1` (stereo not shown) [Example 62]: the logP result is listed as “logP = 4.62^a)”.

Regarding `OC1(C(F)(F)F)CC(C2(Cl)CC2)=NN1C(=S)Nc1ccc(C(F)(F)F)cc1` (stereo not shown) [Example 78], the logP entry is “logP = 4.41^a)”.

As to `CC(C)CC1=NN(C(=S)Nc2ccccc2)C(O)(C(F)(F)F)C1` (racemic) [Example 7], the logP entry is listed as “logP = 4.31^a)”.

With `O=C(Nc1ccc(Cl)cc1)N1N=C(c2ccco2)CC1(O)C(F)(F)F` (stereo not shown) [Example 80], the logP result is “logP = 3.41^a)”.

As for `CC(C)(C)C1=NN(C(=O)Nc2ccc(Cl)cc2)C(O)(C(F)(F)F)C1` (stereo not shown) [Example 58], the logP entry is given as “logP = 4.16^a)”.

In the case of `CCC1=NN(C(=O)Nc2ccc(F)cc2)C(O)(C(F)(F)F)C1` (stereo not shown) [Example 50], the logP result is “logP = 2.96^a)”.

In the case of `CCC1=NN(C(=S)Nc2cc(Cl)cc(Cl)c2)C(O)(C(F)(F)F)C1` (stereo not shown) [Example 92], the logP entry was “logP = 4.75^a)”.

Consider `COc1ccccc1NC(=S)N1N=C(C)CC1(O)C(F)(F)F` (stereo not shown) [Example 108], for which the logP entry is recorded as “logP = 3.36^a)”.

Consider `CC1=NN(C(=S)Nc2cccc(F)c2)C(O)(C(F)(F)F)C1` (stereo not shown) [Example 111], for which the logP result was “logP = 3.18^a)”.

Regarding `CC(C)CC1=NN(C(=S)Nc2ccccc2F)C(O)(C(F)(F)F)C1` (racemic) [Example 11], the logP entry was “logP = 4.23^a)”.

For the compound `CC1=NN(C(=S)NCc2ccccc2Cl)C(O)(C(F)(F)F)C1` (stereo not shown) [Example 125], the logP entry is listed as “logP = 3.87^a)”.

Consider `COc1ccc(NC(=S)N2N=C(C(C)(C)C)CC2(O)C(F)(F)F)cc1` (stereo not shown) [Example 61], for which the logP result is on record as “logP = 3.54^a)”.

Take `CC(C)C1=NN(C(=S)Nc2ccc(C(C)(C)C)cc2)C(O)(C(F)(F)F)C1` (racemic) [Example 21]: the logP entry is “logP = 5.18^a)”.

Turning to `CCC1=NN(C(=S)Nc2ccc(OC(F)(F)F)cc2)C(O)(C(F)(F)F)C1` (stereo not shown) [Example 95], the logP entry is given as “logP = 4.31^a)”.

For the compound `CCC1=NN(C(=S)Nc2cc(Cl)ccc2Cl)C(O)(C(F)(F)F)C1` (stereo not shown) [Example 85], the logP result is “logP = 4.47^a)”.

Turning to `CCC1=NN(C(=S)Nc2c(F)cccc2F)C(O)(C(F)(F)F)C1` (stereo not shown) [Example 84], the logP entry was “logP = 3.30^a)”.

Regarding `CC(C)C1=NN(C(=O)Nc2ccc(OC(F)(F)F)cc2)C(O)(C(F)(F)F)C1` (racemic) [Example 17], the logP result is “logP = 4.09^a)”.

Take `CCC1=NN(C(=S)Nc2cccc(F)c2)C(O)(C(F)(F)F)C1` (stereo not shown) [Example 94]: the logP entry is “logP = 3.71^a)”.

For the compound `CC1=NN(C(=O)Nc2ccc(F)cc2)C(O)(C(F)(F)F)C1` (stereo not shown) [Example 117], the logP entry was “logP = 2.70^a)”.

Consider `CC(C)(C)C1=NN(C(=O)Nc2ccc(OC(F)(F)F)cc2)C(O)(C(F)(F)F)C1` (stereo not shown) [Example 67], for which the logP result is on record as “logP = 4.41^a)”.

Consider `COc1ccc(NC(=S)N2N=C(CC(C)C)CC2(O)C(F)(F)F)cc1` (racemic) [Example 23], for which the logP entry is recorded as “logP = 4.17^a)”.

Regarding `CCC1=NN(C(=S)Nc2ccc(Oc3ccccc3)cc2)C(O)(C(F)(F)F)C1` (stereo not shown) [Example 88], the logP entry was “logP = 4.52^a)”.

On to `CC(C)(C)C1=NN(C(=S)Nc2ccc(Cl)cc2)C(O)(C(F)(F)C(F)(F)F)C1` (stereo not shown) [Example 135], for which the logP result was “logP = 5.19^a)”.

Regarding `CC1=NN(C(=S)Nc2ccc(Oc3ccccc3)cc2)C(O)(C(F)(F)F)C1` (stereo not shown) [Example 104], the logP entry was “logP = 4.15^a)”.

For `CCC1=NN(C(=O)Nc2ccc(Cl)cc2)C(O)(C(F)(F)F)C1` (racemic) [Example 13], the logP result is recorded as “logP = 3.41^a)”.

Turning to `CCC1=NN(C(=S)Nc2ccc(C(C)(C)C)cc2)C(O)(C(F)(F)F)C1` (stereo not shown) [Example 99], the logP result is on record as “logP = 4.85^a)”.

For the compound `CC(C)(C)C1=NN(C(=O)Nc2ccc(Cl)c(Cl)c2)C(O)(C(F)(F)F)C1` (stereo not shown) [Example 59], the logP result is on record as “logP = 4.62^a)”.

Regarding `CC1=NN(C(=S)Nc2ccc(OC(F)(F)F)cc2)C(O)(C(F)(F)F)C1` (stereo not shown) [Example 112], the logP result is recorded as “logP = 3.89^a)”.

As for `CCC1=NN(C(=S)Nc2cc(C(F)(F)F)ccc2Cl)C(O)(C(F)(F)F)C1` (stereo not shown) [Example 90], the logP result is “logP = 4.51^a)”.

Turning to `CC(C)(C)C1=NN(C(=S)Nc2ccc(Cl)cc2)C(O)(C(F)(F)C(F)(F)C(F)(F)F)C1` (stereo not shown) [Example 138], the logP result is “logP = 5.57^a)”.

On to `CCC1=NN(C(=S)Nc2ccc(OC)cc2)C(O)(C(F)(F)F)C1` (stereo not shown) [Example 86], for which the logP result is “logP = 3.47^a)”.

Source of the values: patent US20070275967A1, “Pyrazolinols” (BAYER CROPSCIENCE AKTIENGESELLSCHAFT, priority 2003, published 2007).
